Test results as given in PubChem BioAssay (NCI).
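Cells were grown in 96-well plates and exposed to each compound for 48 hours at five concentrations; endpoints were interpolated linearly between bracketing concentrations, or set to the highest concentration if not reached. GI50 marks 50% less growth. Definition used: TGI = concentration required for complete inhibition of growth.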

Assays:
Assay in all cases: inhibition of tumour cell growth, NCI panel, 48 h
HCC-2998 colon = tested on: HCC-2998 colon
OVCAR-5 ovarian = tested on: OVCAR-5 ovarian
NCI-H460 lung = tested on: NCI-H460 lung
NCI/ADR-RES ovarian = tested on: NCI/ADR-RES ovarian
NCI-H522 lung = tested on: NCI-H522 lung
HOP-92 NSCLC = tested on: HOP-92 NSCLC
SNB-19 CNS = tested on: SNB-19 CNS
OVCAR-4 ovarian = tested on: OVCAR-4 ovarian
CAKI-1 renal = tested on: CAKI-1 renal
SN12C renal = tested on: SN12C renal
ACHN renal = tested on: ACHN renal
SR leukemia = tested on: SR leukemia
TK-10 renal = tested on: TK-10 renal
UACC-62 melanoma = tested on: UACC-62 melanoma
SW-620 colon = tested on: SW-620 colon
SF-539 CNS = tested on: SF-539 CNS
MALME-3M melanoma = tested on: MALME-3M melanoma
NCI-H226 lung = tested on: NCI-H226 lung
KM12 colon = tested on: KM12 colon
DU-145 prostate = tested on: DU-145 prostate
A498 renal = tested on: A498 renal
SF-268 CNS = tested on: SF-268 CNS
HL-60(TB) leukemia = tested on: HL-60(TB) leukemia
RXF 393 renal = tested on: RXF 393 renal
MDA-MB-231 breast = tested on: MDA-MB-231 breast
NCI-H23 lung = tested on: NCI-H23 lung
UO-31 renal = tested on: UO-31 renal
PC-3 prostate = tested on: PC-3 prostate
SK-MEL-5 melanoma = tested on: SK-MEL-5 melanoma
UACC-257 melanoma = tested on: UACC-257 melanoma
SNB-75 CNS = tested on: SNB-75 CNS
SK-MEL-2 melanoma = tested on: SK-MEL-2 melanoma
A549 NSCLC = tested on: A549 NSCLC
HS 578T breast = tested on: HS 578T breast
K-562 leukemia = tested on: K-562 leukemia
U251 CNS = tested on: U251 CNS
HT29 colon = tested on: HT29 colon
RPMI-8226 leukemia = tested on: RPMI-8226 leukemia
OVCAR-3 ovarian = tested on: OVCAR-3 ovarian
HCT-15 colon = tested on: HCT-15 colon
MOLT-4 leukemia = tested on: MOLT-4 leukemia
SK-MEL-28 melanoma = tested on: SK-MEL-28 melanoma
CCRF-CEM leukemia = tested on: CCRF-CEM leukemia
HCT-116 colon = tested on: HCT-116 colon
HOP-62 NSCLC = tested on: HOP-62 NSCLC
786-0 renal = tested on: 786-0 renal
OVCAR-8 ovarian = tested on: OVCAR-8 ovarian
MCF7 breast = tested on: MCF7 breast
SF-295 CNS = tested on: SF-295 CNS
BT-549 breast = tested on: BT-549 breast
MDA-MB-435 = tested on: MDA-MB-435
LOX IMVI melanoma = tested on: LOX IMVI melanoma
EKVX NSCLC = tested on: EKVX NSCLC
IGROV1 ovarian = tested on: IGROV1 ovarian

N=C(N)c1ccc(-c2ccc(-c3cccs3)s2)s1
GI50 (HCC-2998 colon): 1.13 µM | TGI (HCC-2998 colon): 2.48 µM | GI50 (OVCAR-5 ovarian): 1.21 µM | TGI (OVCAR-5 ovarian): 2.52 µM | TGI (NCI-H460 lung): 0.229 µM | GI50 (NCI/ADR-RES ovarian): 1.79 µM | TGI (NCI/ADR-RES ovarian): 3.62 µM | GI50 (NCI-H522 lung): 1.49 µM | TGI (NCI-H522 lung): 3.02 µM | GI50 (HOP-92 NSCLC): 1.06 µM | TGI (HOP-92 NSCLC): 2.6 µM | GI50 (SNB-19 CNS): 1.56 µM | TGI (SNB-19 CNS): 3.07 µM | GI50 (OVCAR-4 ovarian): 1.33 µM | TGI (OVCAR-4 ovarian): 4.16 µM | GI50 (CAKI-1 renal): 1.57 µM | TGI (CAKI-1 renal): 2.95 µM | GI50 (SN12C renal): 1.58 µM | TGI (SN12C renal): 3.3 µM | GI50 (ACHN renal): 1.66 µM | TGI (ACHN renal): 3.09 µM | GI50 (SR leukemia): 0.302 µM | TGI (SR leukemia): 0.895 µM | GI50 (TK-10 renal): 1.48 µM | TGI (TK-10 renal): 2.89 µM | GI50 (UACC-62 melanoma): 1.82 µM | TGI (UACC-62 melanoma): 3.28 µM | GI50 (SW-620 colon): 1.63 µM | TGI (SW-620 colon): 3.21 µM | GI50 (SF-539 CNS): 1.58 µM | TGI (SF-539 CNS): 2.96 µM | GI50 (MALME-3M melanoma): 1.71 µM | TGI (MALME-3M melanoma): 3.67 µM | GI50 (NCI-H226 lung): 6.89 µM | TGI (NCI-H226 lung): 52.4 µM | GI50 (KM12 colon): 1.47 µM | TGI (KM12 colon): 2.92 µM | GI50 (DU-145 prostate): 1.52 µM | TGI (DU-145 prostate): 2.97 µM | GI50 (A498 renal): 0.279 µM | TGI (A498 renal): 0.846 µM | GI50 (SF-268 CNS): 1.79 µM | TGI (SF-268 CNS): 3.48 µM | GI50 (HL-60(TB) leukemia): 1.58 µM | TGI (HL-60(TB) leukemia): 3.42 µM | GI50 (RXF 393 renal): 0.29 µM | TGI (RXF 393 renal): 0.924 µM | GI50 (MDA-MB-231 breast): 1.5 µM | TGI (MDA-MB-231 breast): 3.13 µM | GI50 (NCI-H23 lung): 1.62 µM | TGI (NCI-H23 lung): 3.42 µM | GI50 (UO-31 renal): 0.318 µM | TGI (UO-31 renal): 2.1 µM | GI50 (PC-3 prostate): 1.53 µM | TGI (PC-3 prostate): 2.98 µM | GI50 (SK-MEL-5 melanoma): 1.02 µM | TGI (SK-MEL-5 melanoma): 2.34 µM | GI50 (UACC-257 melanoma): 1.66 µM | TGI (UACC-257 melanoma): 3.11 µM | GI50 (SNB-75 CNS): 1.77 µM | TGI (SNB-75 CNS): 3.41 µM

Cc1ncc([N+](=O)[O-])n1CCNCCCn1ccnc1[N+](=O)[O-]
TGI (HCC-2998 colon): > 100 µM | TGI (OVCAR-5 ovarian): > 100 µM | TGI (NCI-H460 lung): > 100 µM | TGI (SK-MEL-2 melanoma): > 100 µM | TGI (A549 NSCLC): > 100 µM | TGI (HS 578T breast): > 100 µM | TGI (NCI-H522 lung): > 100 µM | TGI (K-562 leukemia): > 100 µM | TGI (U251 CNS): > 100 µM | TGI (SN12C renal): > 100 µM | TGI (HT29 colon): > 100 µM | TGI (SR leukemia): > 100 µM | TGI (TK-10 renal): > 100 µM | TGI (RPMI-8226 leukemia): > 100 µM | TGI (OVCAR-3 ovarian): > 100 µM | TGI (HCT-15 colon): > 100 µM | TGI (SW-620 colon): > 100 µM | TGI (SF-539 CNS): > 100 µM | TGI (MALME-3M melanoma): > 100 µM | TGI (NCI-H226 lung): > 100 µM | TGI (KM12 colon): > 100 µM | TGI (MOLT-4 leukemia): > 100 µM | TGI (SK-MEL-28 melanoma): > 100 µM | TGI (SF-268 CNS): > 100 µM | TGI (HL-60(TB) leukemia): > 100 µM | TGI (CCRF-CEM leukemia): > 100 µM | TGI (HCT-116 colon): > 100 µM | TGI (HOP-62 NSCLC): > 100 µM | TGI (NCI-H23 lung): > 100 µM | TGI (786-0 renal): > 100 µM | TGI (PC-3 prostate): > 100 µM | TGI (SK-MEL-5 melanoma): > 100 µM | TGI (OVCAR-8 ovarian): > 100 µM | TGI (MCF7 breast): > 100 µM | TGI (SF-295 CNS): > 100 µM | TGI (UACC-257 melanoma): > 100 µM | TGI (SNB-75 CNS): > 100 µM

OCCNCCCOc1ccc2ncnc(Nc3ccc(Oc4cccc(C(F)(F)F)c4)c(Cl)c3)c2c1
GI50 (HCC-2998 colon): 1.64 µM | TGI (HCC-2998 colon): 3.1 µM | GI50 (OVCAR-5 ovarian): 1.65 µM | TGI (OVCAR-5 ovarian): 3.24 µM | GI50 (NCI-H460 lung): 1.73 µM | TGI (NCI-H460 lung): 3.31 µM | GI50 (SK-MEL-2 melanoma): 1.7 µM | TGI (SK-MEL-2 melanoma): 3.38 µM | GI50 (NCI/ADR-RES ovarian): 2.65 µM | TGI (NCI/ADR-RES ovarian): 9.3 µM | GI50 (BT-549 breast): 1.82 µM | TGI (BT-549 breast): 4.25 µM | GI50 (MDA-MB-435): 1.72 µM | TGI (MDA-MB-435): 3.21 µM | GI50 (LOX IMVI melanoma): 1.71 µM | TGI (LOX IMVI melanoma): 3.15 µM | GI50 (HOP-92 NSCLC): 1.05 µM | TGI (HOP-92 NSCLC): 2.37 µM | GI50 (K-562 leukemia): 1.79 µM | TGI (K-562 leukemia): 4.48 µM | GI50 (CAKI-1 renal): 2.99 µM | TGI (CAKI-1 renal): 11.6 µM | GI50 (SN12C renal): 1.43 µM | TGI (SN12C renal): 2.83 µM | GI50 (ACHN renal): 1.09 µM | TGI (ACHN renal): 2.28 µM | GI50 (SR leukemia): 1.62 µM | TGI (SR leukemia): 4.65 µM | GI50 (TK-10 renal): 1.13 µM | TGI (TK-10 renal): 2.54 µM | GI50 (RPMI-8226 leukemia): 1.51 µM | TGI (RPMI-8226 leukemia): 4.1 µM | GI50 (OVCAR-3 ovarian): 1.5 µM | TGI (OVCAR-3 ovarian): 2.92 µM | GI50 (HCT-15 colon): 1.54 µM | TGI (HCT-15 colon): 3.01 µM | GI50 (UACC-62 melanoma): 1.79 µM | TGI (UACC-62 melanoma): 3.31 µM | GI50 (SW-620 colon): 1.76 µM | TGI (SW-620 colon): 3.38 µM | GI50 (SF-539 CNS): 1.64 µM | TGI (SF-539 CNS): 3.07 µM | GI50 (MALME-3M melanoma): 1.66 µM | TGI (MALME-3M melanoma): 3.24 µM | GI50 (KM12 colon): 1.77 µM | TGI (KM12 colon): 3.26 µM | GI50 (DU-145 prostate): 1.33 µM | TGI (DU-145 prostate): 2.66 µM | GI50 (SK-MEL-28 melanoma): 1.75 µM | TGI (SK-MEL-28 melanoma): 3.21 µM | GI50 (A498 renal): 1.72 µM | TGI (A498 renal): 5.29 µM | GI50 (CCRF-CEM leukemia): 1.66 µM | TGI (CCRF-CEM leukemia): 4.42 µM | GI50 (EKVX NSCLC): 1.24 µM | TGI (EKVX NSCLC): 2.76 µM | GI50 (MDA-MB-231 breast): 1.72 µM | TGI (MDA-MB-231 breast): 3.2 µM | GI50 (NCI-H23 lung): 1.63 µM | TGI (NCI-H23 lung): 3.13 µM | GI50 (786-0 renal): 1.62 µM | TGI (786-0 renal): 3.03 µM | GI50 (IGROV1 ovarian): 0.584 µM | TGI (IGROV1 ovarian): 2.14 µM | GI50 (UO-31 renal): 1.29 µM | TGI (UO-31 renal): 2.57 µM | GI50 (PC-3 prostate): 1.66 µM | TGI (PC-3 prostate): 3.21 µM | GI50 (OVCAR-8 ovarian): 2.24 µM | TGI (OVCAR-8 ovarian): 5.83 µM | GI50 (SF-295 CNS): 1.79 µM | TGI (SF-295 CNS): 3.24 µM | GI50 (SNB-75 CNS): 1.48 µM | TGI (SNB-75 CNS): 2.86 µM
